Results reported in patent US20260022142A1, “MACROCYCLIC IMMUNOMODULATORS” (Bristol-Myers Squibb Company, priority 2022, published 2026).
pIC50: −log10 of the molar value. Bridge positions count the residues as written; N and C are the ends. Square brackets hold non-standard residues; d marks the D form. Peptide text beside a SMILES is read from it. * marks the point of attachment. Phe(4-COOH) = N[C@@H](Cc1ccc(C(=O)O)cc1)C(=O)O; Phe(3,4-F2) = N[C@@H](Cc1ccc(F)c(F)c1)C(=O)O; Bip = N[C@@H](Cc1ccc(-c2ccccc2)cc1)C(=O)O; Phe(3-Me) = Cc1cccc(C[C@H](N)C(=O)O)c1; Phe(4-F) = N[C@@H](Cc1ccc(F)cc1)C(=O)O; 1Nal = N[C@@H](Cc1cccc2ccccc12)C(=O)O; Bta = N[C@@H](Cc1csc2ccccc12)C(=O)O; Cha = N[C@@H](CC1CCCCC1)C(=O)O; Cit = NC(=O)NCCC[C@H](N)C(=O)O; Carboxymethyl = O=C(O)C*; Orn = NCCC[C@H](N)C(=O)O; Aun = NCCCCCCCCCCC(=O)O; Dab = NCC[C@H](N)C(=O)O; Dap = NC[C@H](N)C(=O)O; AEEA = NCCOCCOCC(=O)O

Target: T1, PD-1/PD-L1 interaction (PE-labeled human PD-L1-Ig binding to Jurkat cell line over-expressing human PD-1) (Homo sapiens, UniProt Q15116)
T1 construct: expressed in transfected cells; host or cells: Jurkat
Experiment: Jurkat-PD-1 Cell Binding High-Content Screening Assay (CBA)
Assay type: cell-based
Details: Jurkat cell line over-expressing human PD-1; PE-labeled PD-L1-Ig 20 nM final; read-out: Jurkat hPD1-PDL1 IC50
Method in brief: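 Jurkat cells over-expressing human PD-1 (8×10^3 per well, DMEM/10% FCS) preincubated with compound 2 h at 37° C, then PE-labeled human PD-L1-Ig (20 nM final) added for 1 h. Cells fixed with paraformaldehyde, Hoechst-stained, and bound fluorescence quantified by high-content imaging.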

T1 sequence (Q15116 25-288): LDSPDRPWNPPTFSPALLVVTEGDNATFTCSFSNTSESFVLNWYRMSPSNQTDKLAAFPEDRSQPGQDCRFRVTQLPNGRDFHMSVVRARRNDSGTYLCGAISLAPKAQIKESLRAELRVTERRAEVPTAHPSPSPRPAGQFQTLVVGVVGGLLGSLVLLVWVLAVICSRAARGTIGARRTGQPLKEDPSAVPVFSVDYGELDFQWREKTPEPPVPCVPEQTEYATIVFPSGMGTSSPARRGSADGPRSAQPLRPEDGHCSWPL

Row | pIC50 | Compound
1 | 7.74 | Cc1cccc(C[C@@H]2NC(=O)[C@H](CC(=O)O)NC(=O)[C@H](Cc3ccc(OCC(=O)O)cc3)NC(=O)[C@H](CN)NC(=O)CSC[C@@H](C(=O)NCC(=O)N[C@@H](CCC(=O)O)C(=O)NCCCCCCCCCCC(=O)O)NC(=O)[C@H]([C@@H](C)O)NC(=O)[C@H](C(C)C)NC(=O)[C@H](CC3CCCCC3)NC(=O)[C@H](CCN)NC(=O)[C@@H](CC(C)C)NC(=O)[C@H](CCCN)NC(=O)[C@H](CCCNC(N)=O)NC(=O)[C@H](Cc3ccc(-c4ccccc4)cc3)NC(=O)[C@H](C(C)C)NC2=O)c1 [Compound 1292] ({CH2CO}-[Dap]Y(Carboxymethyl)D[Phe(3-Me)]V[Bip][Cit][Orn][dL][Dab][Cha]VTCGE[Aun]-OH; thioether N-14)
2 | 7.72 | Cc1cccc(C[C@@H]2NC(=O)[C@H](CC(=O)O)NC(=O)[C@H](Cc3ccc(OCC(=O)O)cc3)NC(=O)[C@H]([C@@H](C)O)NC(=O)CSC[C@@H](C(=O)N[C@@H](CCCCN)C(=O)NCCCCCCCCCCC(=O)O)NC(=O)[C@H]([C@@H](C)O)NC(=O)[C@H](C(C)C)NC(=O)[C@H](CC3CCCCC3)NC(=O)[C@H](CCN)NC(=O)[C@@H](CC(C)C)NC(=O)[C@H](CCCN)NC(=O)[C@H](Cc3ccc(OCC(=O)O)cc3)NC(=O)[C@H](Cc3ccc(-c4ccccc4)cc3)NC(=O)[C@H](Cc3ccc(OCC(=O)O)cc3)NC2=O)c1 [Compound 1293] ({CH2CO}-TY(Carboxymethyl)D[Phe(3-Me)]Y(Carboxymethyl)[Bip]Y(Carboxymethyl)[Orn][dL][Dab][Cha]VTCK[Aun]-OH; thioether N-14)
3 | 7.71 | CC(C)C[C@H]1NC(=O)[C@H](CCCN)NC(=O)[C@H](Cc2ccc(O)cc2)NC(=O)[C@H](Cc2ccc(-c3ccccc3)cc2)NC(=O)[C@H](C(C)C)NC(=O)[C@H](Cc2ccc(F)cc2)NC(=O)[C@H](CC(=O)O)NC(=O)[C@H](Cc2ccc(OCC(=O)O)cc2)NC(=O)[C@H](CN)NC(=O)CSC[C@@H](C(=O)N[C@@H](CCN)C(=O)NCCOCCOCC(=O)NCCCCCCCCCCC(=O)O)NC(=O)[C@H](CCCN)NC(=O)[C@H](C(C)C)NC(=O)[C@H](CC2CCCCC2)NC(=O)[C@H](CCN)NC1=O [Compound 1294] ({CH2CO}-[Dap]Y(Carboxymethyl)D[Phe(4-F)]V[Bip]Y[Orn][dL][Dab][Cha]V[Orn]C[Dab][AEEA][Aun]-OH; thioether N-14)
4 | 7.65 | Cc1cccc(C[C@@H]2NC(=O)[C@H](CC(=O)O)NC(=O)[C@H](Cc3ccc(OCC(=O)O)cc3)NC(=O)[C@H](CN)NC(=O)CSC[C@@H](C(=O)NCC(=O)NCCCCCCCCCCC(=O)O)NC(=O)[C@H]([C@@H](C)O)NC(=O)[C@H](C(C)C)NC(=O)[C@H](CC3CCCCC3)NC(=O)[C@H](CCN)NC(=O)[C@@H](CC(C)C)NC(=O)[C@H](CCCN)NC(=O)[C@H](CCCNC(N)=O)NC(=O)[C@H](Cc3ccc(-c4ccccc4)cc3)NC(=O)[C@H](C(C)C)NC2=O)c1 [Compound 1295] ({CH2CO}-[Dap]Y(Carboxymethyl)D[Phe(3-Me)]V[Bip][Cit][Orn][dL][Dab][Cha]VTCG[Aun]-OH; thioether N-14)
5 | 7.62 | Cc1cccc(C[C@@H]2NC(=O)[C@H](CC(=O)O)NC(=O)[C@H](Cc3ccc(OCC(=O)O)cc3)NC(=O)[C@H](CCCNC(=N)N)NC(=O)CSC[C@@H](C(=O)N[C@@H](CCCCN)C(=O)NCCCCCCCCCCC(=O)O)NC(=O)[C@H]([C@@H](C)O)NC(=O)[C@H](C(C)C)NC(=O)[C@H](CC3CCCCC3)NC(=O)[C@H](CCN)NC(=O)[C@@H](CC(C)C)NC(=O)[C@H](CCCN)NC(=O)[C@H](Cc3ccc(OCC(=O)O)cc3)NC(=O)[C@H](Cc3ccc(-c4ccccc4)cc3)NC(=O)[C@H](Cc3ccc(OCC(=O)O)cc3)NC2=O)c1 [Compound 1296] ({CH2CO}-RY(Carboxymethyl)D[Phe(3-Me)]Y(Carboxymethyl)[Bip]Y(Carboxymethyl)[Orn][dL][Dab][Cha]VTCK[Aun]-OH; thioether N-14)
6 | 7.61 | CC(C)C[C@H]1NC(=O)[C@H](CCCN)NC(=O)[C@H](Cc2ccc(O)cc2)NC(=O)[C@H](Cc2ccc(-c3ccccc3)cc2)NC(=O)[C@H](C(C)C)NC(=O)[C@H](Cc2cccc3ccccc23)NC(=O)[C@H](CC(=O)O)NC(=O)[C@H](Cc2ccc(OCC(=O)O)cc2)NC(=O)[C@H](CN)NC(=O)CSC[C@@H](C(=O)N[C@@H](CCN)C(=O)NCCOCCOCC(=O)NCCCCCCCCCCC(=O)O)NC(=O)[C@H](CCCN)NC(=O)[C@H](C(C)C)NC(=O)[C@H](CC2CCCCC2)NC(=O)[C@H](CCN)NC1=O [Compound 1297] ({CH2CO}-[Dap]Y(Carboxymethyl)D[1Nal]V[Bip]Y[Orn][dL][Dab][Cha]V[Orn]C[Dab][AEEA][Aun]-OH; thioether N-14)
7 | 7.54 | CC(C)C[C@H]1NC(=O)[C@H](CCCN)NC(=O)[C@H](Cc2ccc(O)cc2)NC(=O)[C@H](Cc2ccc(-c3ccccc3)cc2)NC(=O)[C@H](Cc2ccc(OCC(=O)O)cc2)NC(=O)[C@H](Cc2ccc(F)cc2)NC(=O)[C@H](CC(=O)O)NC(=O)[C@H](Cc2ccc(OCC(=O)O)cc2)NC(=O)[C@H](CN)NC(=O)CSC[C@@H](C(=O)N[C@@H](CCN)C(=O)NCCOCCOCC(=O)NCCCCCCCCCCC(=O)O)NC(=O)[C@H](CCCN)NC(=O)[C@H](C(C)C)NC(=O)[C@H](CC2CCCCC2)NC(=O)[C@H](CCN)NC1=O [Compound 1298] ({CH2CO}-[Dap]Y(Carboxymethyl)D[Phe(4-F)]Y(Carboxymethyl)[Bip]Y[Orn][dL][Dab][Cha]V[Orn]C[Dab][AEEA][Aun]-OH; thioether N-14)
8 | 7.50 | CC(C)C[C@H]1NC(=O)[C@H](CCCN)NC(=O)[C@H](Cc2ccc(O)cc2)NC(=O)[C@H](Cc2ccc(-c3ccccc3)cc2)NC(=O)[C@H](C(C)C)NC(=O)[C@H](Cc2ccc(F)c(F)c2)NC(=O)[C@H](CC(=O)O)NC(=O)[C@H](Cc2ccc(OCC(=O)O)cc2)NC(=O)[C@H](CN)NC(=O)CSC[C@@H](C(=O)N[C@@H](CCN)C(=O)NCCOCCOCC(=O)NCCCCCCCCCCC(=O)O)NC(=O)[C@H](CCCN)NC(=O)[C@H](C(C)C)NC(=O)[C@H](CC2CCCCC2)NC(=O)[C@H](CCN)NC1=O [Compound 1301] ({CH2CO}-[Dap]Y(Carboxymethyl)D[Phe(3,4-F2)]V[Bip]Y[Orn][dL][Dab][Cha]V[Orn]C[Dab][AEEA][Aun]-OH; thioether N-14)
9 | 7.50 | CC(C)C[C@H]1NC(=O)[C@H](CCCN)NC(=O)[C@H](Cc2ccc(O)cc2)NC(=O)[C@H](Cc2ccc(-c3ccccc3)cc2)NC(=O)[C@H](C(C)C)NC(=O)[C@H](Cc2ccc(O)cc2)NC(=O)[C@H](CC(=O)O)NC(=O)[C@H](Cc2ccc(OCC(=O)O)cc2)NC(=O)[C@H](CN)NC(=O)CSC[C@@H](C(=O)N[C@@H](CCN)C(=O)NCCOCCOCC(=O)NCCCCCCCCCCC(=O)O)NC(=O)[C@H](CCCN)NC(=O)[C@H](C(C)C)NC(=O)[C@H](CC2CCCCC2)NC(=O)[C@H](CCN)NC1=O [Compound 1302] ({CH2CO}-[Dap]Y(Carboxymethyl)DYV[Bip]Y[Orn][dL][Dab][Cha]V[Orn]C[Dab][AEEA][Aun]-OH; thioether N-14)
10 | 7.49 | Cc1cccc(C[C@@H]2NC(=O)[C@H](CC(=O)O)NC(=O)[C@H](Cc3ccc(OCC(=O)O)cc3)NC(=O)[C@H]([C@@H](C)O)NC(=O)CSC[C@@H](C(=O)N[C@@H](CCCCN)C(=O)NCCCCCCCCCCC(=O)O)NC(=O)[C@H]([C@@H](C)O)NC(=O)[C@H](C(C)C)NC(=O)[C@H](CC3CCCCC3)NC(=O)[C@H](CCN)NC(=O)[C@@H](CC(C)C)NC(=O)[C@H](CCCN)NC(=O)[C@H](Cc3ccc(OCC(=O)O)cc3)NC(=O)[C@H](Cc3ccc(-c4ccccc4)cc3)NC(=O)[C@H](Cc3ccc(C(=O)O)cc3)NC2=O)c1 [Compound 1303] ({CH2CO}-TY(Carboxymethyl)D[Phe(3-Me)][Phe(4-COOH)][Bip]Y(Carboxymethyl)[Orn][dL][Dab][Cha]VTCK[Aun]-OH; thioether N-14)
11 | 7.43 | CC(C)C[C@H]1NC(=O)[C@H](CCCN)NC(=O)[C@H](Cc2ccc(O)cc2)NC(=O)[C@H](Cc2ccc(-c3ccccc3)cc2)NC(=O)[C@H](C(C)C)NC(=O)[C@H](Cc2csc3ccccc23)NC(=O)[C@H](CC(=O)O)NC(=O)[C@H](Cc2ccc(OCC(=O)O)cc2)NC(=O)[C@H](CN)NC(=O)CSC[C@@H](C(=O)N[C@@H](CCN)C(=O)NCCOCCOCC(=O)NCCCCCCCCCCC(=O)O)NC(=O)[C@H](CCCN)NC(=O)[C@H](C(C)C)NC(=O)[C@H](CC2CCCCC2)NC(=O)[C@H](CCN)NC1=O [Compound 1304] ({CH2CO}-[Dap]Y(Carboxymethyl)D[Bta]V[Bip]Y[Orn][dL][Dab][Cha]V[Orn]C[Dab][AEEA][Aun]-OH; thioether N-14)
12 | 7.36 | CC(C)C[C@H]1NC(=O)[C@H](CCCN)NC(=O)[C@H](Cc2ccc(O)cc2)NC(=O)[C@H](Cc2ccc(-c3ccccc3)cc2)NC(=O)[C@H](Cc2ccc(OCC(=O)O)cc2)NC(=O)[C@H](Cc2cccc3ccccc23)NC(=O)[C@H](CC(=O)O)NC(=O)[C@H](Cc2ccc(OCC(=O)O)cc2)NC(=O)[C@H](CN)NC(=O)CSC[C@@H](C(=O)N[C@@H](CCN)C(=O)NCCOCCOCC(=O)NCCCCCCCCCCC(=O)O)NC(=O)[C@H](CCCN)NC(=O)[C@H](C(C)C)NC(=O)[C@H](CC2CCCCC2)NC(=O)[C@H](CCN)NC1=O [Compound 1305] ({CH2CO}-[Dap]Y(Carboxymethyl)D[1Nal]Y(Carboxymethyl)[Bip]Y[Orn][dL][Dab][Cha]V[Orn]C[Dab][AEEA][Aun]-OH; thioether N-14)
13 | 7.31 | CC(C)C[C@H]1NC(=O)[C@H](CCCN)NC(=O)[C@H](Cc2ccc(O)cc2)NC(=O)[C@H](Cc2ccc(-c3ccccc3)cc2)NC(=O)[C@H](Cc2ccc(OCC(=O)O)cc2)NC(=O)[C@H](Cc2c[nH]c3ccccc23)NC(=O)[C@H](CC(=O)O)NC(=O)[C@H](Cc2ccc(OCC(=O)O)cc2)NC(=O)[C@H](CN)NC(=O)CSC[C@@H](C(=O)N[C@@H](CCN)C(=O)NCCOCCOCC(=O)NCCCCCCCCCCC(=O)O)NC(=O)[C@H](CCCN)NC(=O)[C@H](C(C)C)NC(=O)[C@H](CC2CCCCC2)NC(=O)[C@H](CCN)NC1=O [Compound 1306] ({CH2CO}-[Dap]Y(Carboxymethyl)DWY(Carboxymethyl)[Bip]Y[Orn][dL][Dab][Cha]V[Orn]C[Dab][AEEA][Aun]-OH; thioether N-14)
